Measurements published in US7001926B2, “Tubulin binding agents and corresponding prodrug constructs” (Oxigene, Inc., priority 2000, dated 2006).
Where two headings read alike, the source gives them in different places.

Legend:
tubulin = assay: Inhibition of tubulin polymerization assay; assay type: biochemical; details: read-out: IC50, In Vitro Inhibition of Tubulin Polymerization; purified bovine brain tubulin, 15 min preincubation at 37° C.
Method: IC50 values for tubulin polymerization were determined according to a previously described procedure (Bai et al, Cancer Research, 1996). Purified tubulin is obtained from bovine brain cells as described in Hamel and Lin (Hamel and Lin, Biochemistry, 1984). Various amounts of inhibitor were preincubated for 15 minutes at 37° C. with purified tubulin. After the incubation period, the reaction was cooled and GTP was added to induce tubulin polymerization. Polymerization was then monitored in a Gilford spectrophotometer at 350 nm. The final reaction mixtures (0.25 ml) contained 1.5 mg/ml tubulin, 0.6 mg/ml microtubule-associated proteins (MAPs), 0.5 mM GTP, 0.5 mM MgCl2, 4% DMSO and 0.1M 4-morpholineethanesulfonate buffer (MES, pH 6.4).

SF-295 = assay: Growth inhibition, SF-295 CNS cancer cell line (SRB); assay type: cell-based, human; details: 48 hours
Method: (§1) Briefly, the cell suspensions, diluted according to the particular cell type and the expected target cell density (5,000–40,000 cells per well based on cell growth characteristics), were added by pipet (100 μl) to 96-well microtiter plates. Inoculates were allowed a preincubation time of 24–28 hours at 37° C. for stabilization. Incubation with the inhibitor compounds lasted for 48 hours in 5% CO2 atmosphere and 100% humidity. Determination of cell growth was performed by in situ fixation of cells, followed by staining with a protein-binding dye sulforhodamine B (SRB), which binds to the basic amino acids of cellular macromolecules. The solubilized stain was measured spectrophotometrically.
(§2) Several compounds were evaluated for cytotoxic activity against […] P388 leukemia cell lines. […] These and additional compounds were evaluated in terms of growth inhibitory activity against several other human cancer cell lines including: central nervous system (“CNS”, SF-295), pancreas (BXPC-3), non-small cell lung cancer (“lung-NSC”, NCI-H460), breast (MCF-7), colon (KM20L2), and prostate (DU-145).

BXPC-3 = assay: Growth inhibition, BXPC-3 pancreas cancer cell line (SRB); assay type: cell-based, human; details: 48 hours
Method: as §1, §2

NCI-H460 = assay: Growth inhibition, NCI-H460 non-small cell lung cancer cell line (SRB); assay type: cell-based, human; details: lung-NSC, 48 hours
Method: as §1, §2

MCF-7 = assay: Growth inhibition, MCF-7 breast cancer cell line (SRB); assay type: cell-based, human; details: 48 hours
Method: as §1, §2

KM20L2 = assay: Growth inhibition, KM20L2 colon cancer cell line (SRB); assay type: cell-based, human; details: 48 hours
Method: as §1, §2

DU-145 = assay: Growth inhibition, DU-145 prostate cancer cell line (SRB); assay type: cell-based, human; details: 48 hours
Method: as §1, §2

[1] = tested on: murine hemangioendothelioma MHEC-5T cell line; assay: In vitro antiproliferative activity, MTT assay; assay type: cell-based
Method: The following compounds were tested for in vitro antiproliferative activity against the murine hemangioendothelioma MHEC-5T cell line using a standard MTT assay (see Mosman, J. Immunol. Methods, 1983). In actively proliferating cells, an increase in MTT conversion is spectrophotometrically quantified by the reduction of MTT (3-[4,5-dimethylthiazol-2-yl]-2,5-diphenyl tetrazolium bromide) to the insoluble formazan dye by enzymes associated with metabolic activity. A compound with growth inhibitory activity will cause a reduction in dye formation relative to cells exposed to a vehicle control.

[2] = tested on: MHEC-5T hemangioendothelioma tumor; assay: Inhibition of tumor blood flow, Fluorescent Bead Assay; assay type: in vivo, SCID mice; details: for % VAPM (vessel area per tumor tissue area as a percentage of the control) / % VNPM (vessel number per tumor tissue area as a percentage of the control): 24 hours post-treatment
Method: The antivascular effects of the C-5 dihydronaphthalene phosphate prodrug Oxi-com 197, 43 was assessed in tumor-bearing mice using a Fluorescent Bead Assay. A MHEC-5T hemangioendothelioma tumor model was established by subcutaneous injection of 0.5×10^6 cultured transformed cell murine myocardial vascular endothelial cell line (“MHEC5-T”) cells into the right flank of Fox Chase CB-17 Severe Combined Immunodeficient (“SCID”) mice. When transplanted tumors reached a size of 500 mm^3 (a size without development of necrosis), the mice received a single intraperitoneal (i.p.) injection of saline control or compound at doses ranging from 3.2 to 25 mg/kg. At 24 hours post-treatment, mice were injected intravenously with 0.25 ml of diluted FluoSphere beads (1:6 in physiological saline) in the tail vein, sacrificed after 3 minutes, and tumor was excised for cryosectioning. Tumor cryosections at a thickness of 8 um were directly examined using quantitative fluorescent microscopy. Blood vessels were indicated by blue fluorescence from injected beads. For quantification, image analysis of 3 sections from three tumors treated in each group were examined and vascular shutdown was expressed as vessel area (mm^2) per tumor tissue area (mm^2) as a percentage of the control (“% VAPM”) and as vessel number per tumor tissue area (mm^2) as a percentage of the control (“% VNPM”). The results as shown in Table 11 indicate a clear dose-dependent effect of the agent on tumor blood flow as indicated by the reduction in blood vessel number and vessel area. Administration of a 25 mg/kg dose of Oxi-com 197 was particularly effective, causing a 90% reduction in tumor vessel number relative to the control.
Additional compounds of the present invention were tested for antivascular effects at two dosages (100 mg/kg and 10 mg/kg) using the same Fluorescent Bead Assay as in the previous experiment.

[3] = tested on: MDA-MB-231 human breast adenocarcinoma; assay: Tumor growth control in vivo; set-up: species or system SCID mice
Method: The antitumor activity of C-5 dihydronaphthalene phosphate prodrug, Oxi-com 197, was assessed in tumor-bearing mice by measuring its effects on tumor volume in comparison with CA4P. A human breast adenocarcinoma model was established by subcutaneous injection of cultured MDA-MB-231 cells in Fox Chase CB-17 SCID mice. When the average tumor size reached 50–100 mm^3, mice were randomly divided into several groups (n=10) with no significant difference in body weight and tumor size. Mice were administered CA4P or Oxi-com 197 in saline carrier at doses of 25, 50 or 100 mg/kg by daily intraperitoneal (i.p.) injection for 5 consecutive days (Q1×5). Saline carrier only was used as the control treatment. On Day 3, 7, 10, 13, 17 and 23, tumors were excised from animals in each treatment group (n=2) and measured by width and length. Tumor volume was calculated according to the following formula: Length×Width^2×0.4. The dosage effects of Oxi-com 197 is illustrated in FIG. 14.

[4] = 5 days, read-out: IC50 at 5 days
[5] = read-out: IC50 at 1 hour, 1 hour

CCOP(=O)(Nc1c(OC)ccc2c1CCC=C2c1cc(OC)c(OC)c(OC)c1)OCC [Oxi-com 143, 6-methoxy-1-(3′,4′,5′-trimethoxyphenyl)-5-diethylphosphoramidate-3,4-dihydronapthalene]
IC50 (tubulin): > 40 µM

COc1cc2c(cc1O)C(c1cc(OC)c(OC)c(OC)c1)=CCC2 [Oxi-com 158]
GI50 for Cell Line SF-295 (SF-295): 5.4 mg/L
GI50 for Cell Line BXPC-3 (BXPC-3): 1.8 mg/L
GI50 for Cell Line NCI-H460 (NCI-H460): 3.2 mg/L
GI50 for Cell Line MCF-7 (MCF-7): 1.5 mg/L
GI50 for Cell Line KM20L2 (KM20L2): 2.6 mg/L
GI50 for Cell Line DU-145 (DU-145): 3.4 mg/L

COc1cc(C2=CCCc3c2ccc(OC)c3OP(=O)([O-])[O-])cc(OC)c1OC.[Na+].[Na+] [Oxi-com 197]
GI50 for Cell Line SF-295 (SF-295): 0.0033 mg/L
GI50 for Cell Line BXPC-3 (BXPC-3): 0.28 mg/L
GI50 for Cell Line NCI-H460 (NCI-H460): 0.011 mg/L
GI50 for Cell Line MCF-7 (MCF-7): 0.0045 mg/L
GI50 for Cell Line KM20L2 (KM20L2): 0.33 mg/L
GI50 for Cell Line DU-145 (DU-145): 0.0055 mg/L
IC50 [1, 4]: 0.003 µM
IC50 [1, 5]: 0.1 µM
% VAPM (vessel area per tumor tissue area as a percentage of the control) ([2]; 6.3 mg/kg single i.p.): 65.4 ± 4.9%
% VNPM (vessel number per tumor tissue area as a percentage of the control) ([2]; 6.3 mg/kg single i.p.): 66.5 ± 0.5%
% VAPM (vessel area per tumor tissue area as a percentage of the control) ([2]; 12.5 mg/kg single i.p.): 32.2 ± 6.8%
% VNPM (vessel number per tumor tissue area as a percentage of the control) ([2]; 12.5 mg/kg single i.p.): 55.5 ± 0.8%
reduction in tumor vessel number relative to the control ([2]; 25 mg/kg dose): 90%
% VAPM (vessel area per tumor tissue area as a percentage of the control) ([2]; 25 mg/kg single i.p.): 13.0 ± 5.0%
% VNPM (vessel number per tumor tissue area as a percentage of the control) ([2]; 25 mg/kg single i.p.): 10.4 ± 6.3%
tumor growth (tumor volume) relative to control treatment ([3]; 25, 50, and 100 mg/kg i.p. daily for 5 days (Q1×5)): significantly inhibited tumor growth
antitumor activity relative to CA4P ([3]; MDA-MB-231 model, i.p. Q1×5): enhanced antitumor activity relative to CA4P

COc1cc(C2=CCCc3c2cc(OP(=O)(O)O)c(OC)c3OP(=O)(O)O)cc(OC)c1OC [Oxi-com 199]
IC50 (tubulin): > 40 µM
IC50 [1, 4]: > 44.8 µM
IC50 [1, 5]: > 44.8 µM

COc1cc(C2=CCCc3c2cc(O)c(OC)c3O)cc(OC)c1OC [Oxi-com 200]
IC50 [1, 4]: 16.2 µM
IC50 [1, 5]: > 50 µM

COc1cc(C(=O)C2=CCCc3c2ccc(OC)c3OP(=O)([O-])[O-])cc(OC)c1OC.[Na+].[Na+] [Oxi-com 224]
IC50 [1, 4]: 0.003 µM
IC50 [1, 5]: 0.4 µM
% VAPM at 10 mg/kg dose [2]: 17%
% VAPM at 100 mg/kg dose [2]: 46%

COc1cc(C(=O)c2cccc3c(OP(=O)([O-])[O-])c(OC)ccc23)cc(OC)c1OC.[Na+].[Na+] [Oxi-com 225]
IC50 [1, 4]: 0.005 µM
IC50 [1, 5]: 0.4 µM
% VAPM at 10 mg/kg dose [2]: 35%
% VAPM at 100 mg/kg dose [2]: 60%

COc1ccc2c(c1NC(=O)[C@@H](N)CO)CCC=C2c1cc(OC)c(OC)c(OC)c1 [Oxi-com 229]
IC50 [1, 4]: > 1.4 µM
IC50 [1, 5]: > 44 µM

COc1ccc(C2=CCCc3c2ccc(OC)c3O)c(OC)c1 [Oxi-com 238]
IC50 [1, 4]: 0.04 µM
IC50 [1, 5]: 14 µM

COc1ccc(C2=CCCc3c2ccc(OC)c3OP(=O)(O)O)c(OC)c1 [Oxi-com 239]
IC50 [1, 4]: 0.06 µM
IC50 [1, 5]: 2.4 µM

COc1ccc(OC)c(C2=CCCc3c2ccc(OC)c3O)c1 [Oxi-com 240]
IC50 [1, 4]: 0.03 µM
IC50 [1, 5]: 8 µM

COc1ccc(OC)c(C2=CCCc3c2ccc(OC)c3OP(=O)(O)O)c1 [Oxi-com 241]
IC50 [1, 4]: 0.08 µM
IC50 [1, 5]: 2.5 µM

COc1ccc(C2=CCCc3c2ccc(OC)c3OP(=O)(O)O)cc1OC [Oxi-com 243]
IC50 [1, 4]: 0.3 µM
IC50 [1, 5]: 20 µM
